Data as given in US10081665B2, “Peptides and combination of peptides for use in immunotherapy against various tumors” (immatics biotechnologies GmbH, priority 2015, dated 2018).

How the values were obtained:
CD8+ T cells = assay: In vitro immunogenicity: T-cell priming with aAPCs loaded with peptide/MHC complexes and anti-CD28, pMHC multimer readout; format: cell-based, human; details: in vitro immunogenicity, HLA-A*02 restricted peptides; percentage of positive wells and donors (among evaluable)
Source text: In order to obtain information regarding the immunogenicity of the TUMAPs of the present invention, the inventors performed investigations using an in vitro T-cell priming assay based on repeated stimulations of CD8+ T cells with artificial antigen presenting cells (aAPCs) loaded with peptide/MHC complexes and anti-CD28 antibody.
In order to perform in vitro stimulations by artificial antigen presenting cells loaded with peptide-MHC complex (pMHC) and anti-CD28 antibody, the inventors first isolated CD8+ T cells from fresh HLA-A*02 leukapheresis products via positive selection using CD8 microbeads (Miltenyi Biotec, Bergisch-Gladbach, Germany) of healthy donors obtained from the University clinics Mannheim, Germany, after informed consent. PBMCs and isolated CD8+ lymphocytes were incubated in T-cell medium (TCM) until use consisting of RPMI-Glutamax (Invitrogen, Karlsruhe, Germany) supplemented with 10% heat inactivated human AB serum (PAN-Biotech, Aidenbach, Germany), 100 U/ml Penicillin/100 μg/ml Streptomycin (Cambrex, Cologne, Germany), 1 mM sodium pyruvate (CC Pro, Oberdorla, Germany), 20 μg/ml Gentamycin (Cambrex). 2.5 ng/ml IL-7 (PromoCell, Heidelberg, Germany) and 10 U/ml IL-2 (Novartis Pharma, Nürnberg, Germany) were also added to the TCM at this step. Generation of pMHC/anti-CD28 coated beads, T-cell stimulations and readout was performed in a highly defined in vitro system using four different pMHC molecules per stimulation condition and 8 different pMHC molecules per readout condition.
The purified co-stimulatory mouse IgG2a anti human CD28 Ab 9.3 (Jung et al., 1987) was chemically biotinylated using Sulfo-N-hydroxysuccinimidobiotin as recommended by the manufacturer (Perbio, Bonn, Germany). Beads used were 5.6 μm diameter streptavidin coated polystyrene particles (Bangs Laboratories, Illinois, USA).
pMHC used for positive and negative control stimulations were A*0201/MLA-001 (peptide […] (SEQ ID NO. 289) from modified Melan-A/MART-1) and A*0201/DDX5-001 ([…] from DDX5, SEQ ID NO. 290), respectively.
800,000 beads/200 μl were coated in 96-well plates in the presence of 4×12.5 ng different biotin-pMHC, washed and 600 ng biotin anti-CD28 were added subsequently in a volume of 200 μl. Stimulations were initiated in 96-well plates by co-incubating 1×10^6 CD8+ T cells with 2×10^5 washed coated beads in 200 μl TCM supplemented with 5 ng/ml IL-12 (PromoCell) for 3 days at 37° C. Half of the medium was then exchanged by fresh TCM supplemented with 80 U/ml IL-2 and incubating was continued for 4 days at 37° C. This stimulation cycle was performed for a total of three times. For the pMHC multimer readout using 8 different pMHC molecules per condition, a two-dimensional combinatorial coding approach was used as previously described (Andersen et al., 2012) with minor modifications encompassing coupling to 5 different fluorochromes. Finally, multimeric analyses were performed by staining the cells with Live/dead near IR dye (Invitrogen, Karlsruhe, Germany), CD8-FITC antibody clone SK1 (BD, Heidelberg, Germany) and fluorescent pMHC multimers. For analysis, a BD LSRII SORP cytometer equipped with appropriate lasers and filters was used. Peptide specific cells were calculated as percentage of total CD8+ cells. Evaluation of multimeric analysis was done using the FlowJo software (Tree Star, Oreg., USA). In vitro priming of specific multimer+CD8+ lymphocytes was detected by comparing to negative control stimulations.

HLA-A*02:01 = HLA-A*02:01 (Homo sapiens, UniProt P04439, D140Y/D185E/D98H/E176V/E277Q/G131W/G231S/I119V/I121R/I166T/I218V/L300P/L318F/N151K/N90K/P208A/P217A/Q86G/Q94H/R138H/R169H/T345S); assay: MHC binding assay (UV-ligand exchange, beta2m ELISA); details: binding to HLA-A*02:01, β2m ELISA
How it was run: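 Peptide-MHC complexes made by UV-ligand exchange of a UV-cleavable peptide for test peptide; exchange yield measured by β2m ELISA on streptavidin-coated plates with samples diluted 100-fold, HRP anti-β2m and TMB read at 450 nm. Refolded HLA-A*02:01/MLA-001 monomers (15-500 ng/ml) served as standards.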

[1] = test system: advanced non-resectable HCC; details: advanced non-resectable HCC patients (Chapiro et al., 2014; Llovet et al., 2008); cited from earlier work

Molecule | Wells positive [%] (CD8+ T cells) | Peptide exchange (MHC class I binding score, peptide exchange yield) (HLA-A*02:01) | increase of survival [1]
17 (GLLPSAESIKL; listed as Homo sapiens) [compound 17] | + (<20% = +) | ++++ (≥75% = ++++) | –
18 (KTASINQNV; listed as Homo sapiens) [compound 18] | +++ (50%-69% = +++) | ++ (≥20% = ++) | –
27 (GLLGKVTSV; listed as Homo sapiens) [compound 27] | + (<20% = +) | +++ (≥50 = +++) | –
29 (KMISAIPTL; listed as Homo sapiens) [compound 29] | + (<20% = +) | ++ (≥20% = ++) | –
34 (TLNTLDINL; listed as Homo sapiens) [compound 34] | ++++ (>=70% = ++++) | +++ (≥50 = +++) | –
35 (VIIKGLEEI; listed as Homo sapiens) [compound 35] | + (<20% = +) | ++ (≥20% = ++) | –
39 (YLEDGFAYV; listed as Homo sapiens) [compound 39] | ++++ (>=70% = ++++) | +++ (≥50 = +++) | –
50 (ILLSVLHQL; listed as Homo sapiens) [compound 50] | + (<20% = +) | +++ (≥50 = +++) | –
66 (AMFPDTIPRV; listed as Homo sapiens) [compound 66] | + (<20% = +) | ++ (≥20% = ++) | –
77 (ALYGNVQQV; listed as Homo sapiens) [compound 77] | + (<20% = +) | +++ (≥50 = +++) | –
82 (ILAEEPIYIRV; listed as Homo sapiens) [compound 82] | +++ (50%-69% = +++) | +++ (≥50 = +++) | –
89 (SLAETIFIV; listed as Homo sapiens) [compound 89] | + (<20% = +) | +++ (≥50 = +++) | –
97 (KLFEKSTGL; listed as Homo sapiens) [compound 97] | + (<20% = +) | +++ (≥50 = +++) | –
101 (SLLEVNEASSV; listed as Homo sapiens) [compound 101] | + (<20% = +) | +++ (≥50 = +++) | –
102 (GLYPVTLVGV; listed as Homo sapiens) [compound 102] | + (<20% = +) | +++ (≥50 = +++) | –
121 (ALYVQAPTV; listed as Homo sapiens) [compound 121] | + (<20% = +) | ++ (≥20% = ++) | –

Molecule | Wells positive [%] (CD8+ T cells) | Peptide exchange (MHC class I binding score, peptide exchange yield) (HLA-A*02:01) | increase of survival [1]
157 (ILQDGQFLV; listed as Homo sapiens) [compound 157] | + (<20% = +) | ++ (≥20% = ++) | –
183 (ALSYILPYL; listed as Homo sapiens) [compound 183] | +++ (50%-69% = +++) | +++ (≥50 = +++) | –
203 (FLFVDPELV; listed as Homo sapiens) [compound 203] | +++ (50%-69% = +++) | ++ (≥20% = ++) | –
233 (SLFESLEYL; listed as Homo sapiens) [compound 233] | + (<20% = +) | +++ (≥50 = +++) | –
236 (KMSELQTYV; listed as Homo sapiens) [compound 236] | + (<20% = +) | +++ (≥50 = +++) | –
242 (KLQEEIPVL; listed as Homo sapiens) [compound 242] | + (<20% = +) | +++ (≥50 = +++) | –
246 (ALAGIVTNV; listed as Homo sapiens) [compound 246] | + (<20% = +) | +++ (≥50 = +++) | –
254 (ALGDKFLLRV; listed as Homo sapiens) [compound 254] | + (<20% = +) | ++ (≥20% = ++) | –
255 (FLMKNSDLYGA; listed as Homo sapiens) [compound 255] | + (<20% = +) | +++ (≥50 = +++) | –
257 (KLIDHQGLYL; listed as Homo sapiens) [compound 257] | + (<20% = +) | +++ (≥50 = +++) | –
260 (ALNESLVEC; listed as Homo sapiens) [compound 260] | + (<20% = +) | +++ (≥50 = +++) | –
263 (SIIEYLPTL; listed as Homo sapiens) [compound 263] | + (<20% = +) | +++ (≥50 = +++) | –
264 (TLHDQVHLL; listed as Homo sapiens) [compound 264] | + (<20% = +) | ++ (≥20% = ++) | –
267 (YLLDMPLWYL; listed as Homo sapiens) [compound 267] | + (<20% = +) | +++ (≥50 = +++) | –
CNC(=O)c1cc(Oc2ccc(NC(=O)Nc3ccc(Cl)c(C(F)(F)F)c3)cc2)ccn1 [Sorafenib] | – | – | about 3 months
